Measurements published in ChEMBL document CHEMBL4152362, “Discovery of DS-6930, a potent selective PPARγ modulator. Part II: Lead optimization” (Bioorg Med Chem, 2018).
≈ marks a conversion by molar mass, not a printed value. Calls of active or inactive are those of the source. The rule behind the calls is not given here.

Key:
[1] = Cmax in Zucker diabetic fatty rat at 0.3 mg/kg, po administered once daily for 21 days followed by additional administration on day 22; type: ADME, organism-based; parameters: dose 0.3 mg/kg, route oral; conditions: in vivo
[2] = AUC (0 to 24 hrs) in Zucker diabetic fatty rat at 0.3 mg/kg, po administered once daily for 21 days followed by additional administration on day 22; type: ADME, organism-based; parameters: dose 0.3 mg/kg, time < 24 hr, route oral; conditions: in vivo
[3] = test system: Rattus norvegicus; experiment: Antidiabetic activity in Zucker diabetic fatty rat assessed as reduction in plasma glucose level at 0.3 mg/kg, po administered once daily for 21 days measured on day 22 relative to control; type: functional; parameters: scale not given: the % may be the effect or the level left
[4] = Tmax in Zucker diabetic fatty rat at 0.3 mg/kg, po administered once daily for 21 days followed by additional administration on day 22; type: ADME, organism-based; conditions: in vivo
[5] = 1-octanol/PBS distribution co-efficient, log D of the compound at […] at pH 7.4 after 30 mins by HPLC-MS/MS method; type: physicochemical
[6] = Metabolic stability in rat liver microsomes after 0.5 hrs; type: ADME, microsome; conditions: read-out: Stability
[7] = Aqueous thermodynamic solubility of the compound in pH 6.8 solution up to 4 hrs by HPLC-UV analysis; type: physicochemical; conditions: read-out: Therm_solubility
[8] = Tmax in Zucker diabetic fatty rat at 3 mg/kg, po dosed once daily for 14 days and followed by additional administration on day 15; type: ADME, organism-based; conditions: in vivo
[9] = test system: Rattus norvegicus; experiment: Toxicity in Zucker diabetic fatty rat assessed as body weight gain at 3 mg/kg, po administered once daily for 14 days relative to control; type: organism-based; conditions: in vivo, 336 h
[10] = test system: Hepatocyte; experiment: Cytotoxicity against F344/DuCrlCrlj rat primary hepatocytes assessed as reduction in mitochondrial enzyme activity at 10 to 100 uM after 24 hrs by WST8 assay; type: cell-based
[11] = Oral bioavailability in cynomolgus monkey at 3 mg/kg by LC-MS/MS; type: ADME, organism-based, Macaca fascicularis; conditions: in vivo
[12] = target: T1, Peroxisome proliferator-activated receptor gamma (Homo sapiens) (UniProt P37231); experiment: Agonist activity at recombinant human GAL4-DBD fused PPARgamma LBD expressed in COS7 cells at 10 uM after 24 hrs by luciferase reporter gene assay relative to rosiglitazone; type: cell-based
T1 sequence (whole entry): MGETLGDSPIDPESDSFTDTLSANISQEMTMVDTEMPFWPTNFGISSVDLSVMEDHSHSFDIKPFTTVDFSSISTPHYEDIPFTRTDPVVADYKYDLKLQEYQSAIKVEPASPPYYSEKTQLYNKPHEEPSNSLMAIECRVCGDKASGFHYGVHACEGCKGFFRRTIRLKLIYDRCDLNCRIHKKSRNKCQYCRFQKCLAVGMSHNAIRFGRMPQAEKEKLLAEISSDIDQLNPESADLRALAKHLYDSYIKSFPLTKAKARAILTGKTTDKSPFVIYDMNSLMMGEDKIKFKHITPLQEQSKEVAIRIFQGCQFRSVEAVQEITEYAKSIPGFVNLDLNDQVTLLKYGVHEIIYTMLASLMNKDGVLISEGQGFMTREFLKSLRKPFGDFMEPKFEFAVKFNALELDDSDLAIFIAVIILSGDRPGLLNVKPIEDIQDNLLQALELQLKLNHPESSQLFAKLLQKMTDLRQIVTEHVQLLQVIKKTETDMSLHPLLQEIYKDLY

[13] = test system: Hepatocyte; experiment: Cytotoxicity against F344/DuCrlCrlj rat primary hepatocytes assessed as reduction in cell viability at 10 to 100 uM after 24 hrs by LDH release assay; type: cell-based
[14] = Apparent permeability of the compound after 4 hrs by PAMPA; type: ADME
[15] = test system: Rattus norvegicus; experiment: Antidiabetic activity in Zucker diabetic fatty rat assessed as reduction in plasma glucose level at 3 mg/kg, po administered once daily for 14 days measured on day 15 relative to control; type: functional; parameters: scale not given: the % may be the effect or the level left
[16] = target: T2, Peroxisome proliferator-activated receptor alpha (Homo sapiens) (UniProt Q07869); experiment: Agonist activity at recombinant human GAL4-DBD fused PPARalpha LBD expressed in COS7 cells at 10 uM after 24 hrs by luciferase reporter gene assay relative to 2-(4-tert-Butylphenoxy)-3-[4-[2-[(4-pyridin-2-ylbenzoyl)amino]ethoxy] phenyl]propionic acid; type: cell-based
T2 sequence (whole entry): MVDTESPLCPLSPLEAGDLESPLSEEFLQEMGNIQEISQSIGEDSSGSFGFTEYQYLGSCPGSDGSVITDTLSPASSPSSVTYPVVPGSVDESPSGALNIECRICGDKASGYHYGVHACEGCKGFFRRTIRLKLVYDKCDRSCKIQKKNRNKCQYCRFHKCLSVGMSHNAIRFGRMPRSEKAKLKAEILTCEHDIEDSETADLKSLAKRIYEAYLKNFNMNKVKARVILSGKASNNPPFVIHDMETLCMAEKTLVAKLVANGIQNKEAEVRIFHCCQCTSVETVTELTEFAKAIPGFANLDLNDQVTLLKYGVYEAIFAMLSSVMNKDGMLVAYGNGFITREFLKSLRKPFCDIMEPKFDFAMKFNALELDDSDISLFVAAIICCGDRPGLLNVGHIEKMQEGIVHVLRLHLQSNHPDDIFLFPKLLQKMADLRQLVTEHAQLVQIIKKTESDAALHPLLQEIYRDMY

[17] = AUC (0 to 24 hrs) in Zucker diabetic fatty rat at 3 mg/kg, po dosed once daily for 14 days and followed by additional administration on day 15; type: ADME, organism-based; parameters: time < 24 hr, dose 3 mg/kg, route oral; conditions: in vivo
[18] = Metabolic stability in human liver microsomes after 0.5 hrs; type: ADME, microsome; conditions: read-out: Stability
[19] = target: T3, Peroxisome proliferator-activated receptor gamma (Homo sapiens, UniProt P37231); experiment: Agonist activity at recombinant human GAL4-DBD fused PPARgamma LBD expressed in COS7 cells after 24 hrs by luciferase reporter gene assay; type: cell-based
T3 sequence (P37231 whole entry): T1 sequence (whole entry)

[20] = target: T4, Peroxisome proliferator-activated receptor delta (Homo sapiens) (UniProt Q03181); experiment: Agonist activity at PPARdelta (unknown origin) at 10 uM
T4 sequence (whole entry): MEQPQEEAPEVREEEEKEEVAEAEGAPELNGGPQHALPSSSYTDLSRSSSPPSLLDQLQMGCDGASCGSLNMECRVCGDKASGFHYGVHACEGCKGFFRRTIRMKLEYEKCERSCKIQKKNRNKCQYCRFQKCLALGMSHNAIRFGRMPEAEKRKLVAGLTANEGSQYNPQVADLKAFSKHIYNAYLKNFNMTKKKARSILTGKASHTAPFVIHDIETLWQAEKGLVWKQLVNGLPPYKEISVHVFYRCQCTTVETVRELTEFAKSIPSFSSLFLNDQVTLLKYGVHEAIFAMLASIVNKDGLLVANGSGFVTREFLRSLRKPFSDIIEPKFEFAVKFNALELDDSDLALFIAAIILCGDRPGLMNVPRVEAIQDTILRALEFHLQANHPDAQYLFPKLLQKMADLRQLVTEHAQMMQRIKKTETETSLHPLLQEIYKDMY

[21] = Cmax in Zucker diabetic fatty rat at 3 mg/kg, po dosed once daily for 14 days and followed by additional administration on day 15; type: ADME, organism-based; parameters: dose 3 mg/kg, route oral; conditions: in vivo
[22] = target: T5, Peroxisome proliferator-activated receptor alpha (Homo sapiens, UniProt Q07869); experiment: Agonist activity at recombinant human GAL4-DBD fused PPARalpha LBD expressed in COS7 cells after 24 hrs by luciferase reporter gene assay; type: cell-based
T5 sequence (Q07869 whole entry): T2 sequence (whole entry)

[23] = Clearance in cynomolgus monkey at 1 mg/kg, iv by LC-MS/MS; type: ADME, organism-based, Macaca fascicularis; conditions: in vivo
[24] = Volume of distribution at steady state in cynomolgus monkey at 1 mg/kg, iv by LC-MS/MS; type: ADME, organism-based, Macaca fascicularis; conditions: in vivo, read-out: Vdss
[25] = Cmax in cynomolgus monkey at 3 mg/kg, po by LC-MS/MS; type: ADME, organism-based, Macaca fascicularis; parameters: dose 3 mg/kg, route oral; conditions: in vivo
[26] = AUClast in cynomolgus monkey at 3 mg/kg, po by LC-MS/MS; type: ADME, organism-based, Macaca fascicularis; parameters: dose 3 mg/kg, time 0 - last, route oral; conditions: in vivo
[27] = Half life in cynomolgus monkey at 3 mg/kg, po by LC-MS/MS; type: ADME, organism-based, Macaca fascicularis; conditions: in vivo
[28] = Metabolic stability in cynomolgus monkey liver microsomes after 0.5 hrs; type: ADME, Macaca fascicularis, microsome; conditions: read-out: Stability
[29] = Tmax in cynomolgus monkey at 3 mg/kg, po by LC-MS/MS; type: ADME, organism-based, Macaca fascicularis; conditions: in vivo
[30] = Drug uptake in F344/DuCrlCrlj rat plasma administered via oral gavage measured on day 28 post dose; type: ADME
[31] = Cmax in F344/DuCrlCrlj rat at 100 mg/kg, po via gavage measured on day 28 post dose; type: ADME, organism-based; parameters: dose 100 mg/kg, route oral; conditions: in vivo
[32] = Tmax in F344/DuCrlCrlj rat at 300 mg/kg, po via gavage measured on day 28 post dose; type: ADME, organism-based; conditions: in vivo
[33] = AUC (0 to 24 hrs) in F344/DuCrlCrlj rat at 100 mg/kg, po via gavage measured on day 28 post dose; type: ADME, organism-based; parameters: dose 100 mg/kg, time < 24 hr, route oral; conditions: in vivo
[34] = Tmax in F344/DuCrlCrlj rat at 1000 mg/kg, po via gavage measured on day 28 post dose; type: ADME, organism-based; conditions: in vivo
[35] = AUC (0 to 24 hrs) in F344/DuCrlCrlj rat at 300 mg/kg, po via gavage measured on day 28 post dose; type: ADME, organism-based; parameters: time < 24 hr, dose 300 mg/kg, route oral; conditions: in vivo
[36] = Cmax in F344/DuCrlCrlj rat at 1000 mg/kg, po via gavage measured on day 28 post dose; type: ADME, organism-based; parameters: dose 1000 mg/kg, route oral; conditions: in vivo
[37] = Tmax in F344/DuCrlCrlj rat at 100 mg/kg, po via gavage measured on day 28 post dose; type: ADME, organism-based; conditions: in vivo
[38] = AUC (0 to 24 hrs) in F344/DuCrlCrlj rat at 1000 mg/kg, po via gavage measured on day 28 post dose; type: ADME, organism-based; parameters: time < 24 hr, dose 1000 mg/kg, route oral; conditions: in vivo
[39] = Cmax in F344/DuCrlCrlj rat at 300 mg/kg, po via gavage measured on day 28 post dose; type: ADME, organism-based; parameters: dose 300 mg/kg, route oral; conditions: in vivo

## Cc1cnc(Oc2ccc3nc(COc4cccc(C(=O)[O-])c4)n(C)c3c2)c(C)c1.Cc1cnc(Oc2ccc3nc(COc4cccc(C(=O)[O-])c4)n(C)c3c2)c(C)c1.[Ca+2]
[1]
  Cmax: 79.2 ng/mL
[2]
  AUC at 24 h: 0.861 µg·h/mL
[3]
  Activity: 47%
[4]
  Tmax: 1.8 h

## Cn1c(COc2cccc(C(=O)O)c2)nc2ccc(Oc3ccc4c(c3)OCC4)nc21
[5]
  logD at 0.5 h: 1.4
[6]
  remaining at 0.5 h: 89%
[7]
  solubility thermodynamic at 4 h: 17 µg/mL (≈ 40.7 µM)
[8]
  Tmax: 2 h
[9]
  Activity: 7.1%
[10]
  Activity: Non-Toxic
[11]
  bioavailability: 27%
[12]
  Emax: 89%
[13]
  Activity: Non-Toxic
[14]
  Papp at 4 h: 9.1 ×10⁻⁶ cm/s
[15]
  Activity: 55.3%
[16]
  Emax: 20%
[17]
  AUC at 24 h: 3.39 µg·h/mL
[18]
  remaining at 0.5 h: 92%
[19]
  EC50: 94 nM
[20]
  Activity: inactive
[21]
  Cmax: 630 ng/mL
[22]
  EC50: > 10000 nM
[23]
  clearance: 2.73 mL/min/kg
[24]
  Vd: 1.97 L/kg
[25]
  Cmax: 460 ng/mL
[26]
  AUC(0-t): 4.91 µg·h/mL
[27]
  half-life: 13.3 h
[28]
  remaining at 0.5 h: 88%
[29]
  Tmax: 1.5 h

## Cc1cnc(Oc2ccc3nc(COc4cccc(C(=O)O)c4)n(C)c3c2)c(C)c1.Cl
[30]
  Drug uptake: Dose-dependent effect
[31]
  Cmax: 92800 ng/mL
[32]
  Tmax: 0.5 h
[33]
  AUC at 24 h: 399 µg·h/mL
[34]
  Tmax: 1 h
[35]
  AUC at 24 h: 933 µg·h/mL
[36]
  Cmax: 273000 ng/mL
[37]
  Tmax: 0.5 h
[38]
  AUC at 24 h: 1080 µg·h/mL
[39]
  Cmax: 206000 ng/mL
